US12528790B2, “Amide derivative having antiviral activity” (Shionogi & Co., Ltd., priority 2020, dated 2026)

The molecules below were run on RSV A2 strain (assay: In vitro CPE (CytoPathic Effect) inhibition effect evaluation test, RSV type A). Conditions: human respiratory syncytial virus, HEp-2, 96 h, read-out: EC50, inhibitory effect against RSV type A (CPE inhibition).
Format: cell-based
Protocol: The test sample is diluted in advance to an appropriate concentration with DMSO, and 3-fold series of serial dilutions were prepared on a 384-well plate (0.32 μL/well). HEp-2 cells (CCL-23; ATCC) adjusted at appropriate number (2.4×10^5 cells/mL) in 2% FBS E-MEM (prepared by adding kanamycin and FBS to Eagle's Minimum Essential Medium; Invitrogen) were added at 12.5 μL/well to the 384-well plate previously aliquoted with the test samples. The RSV A2 strain was diluted to an appropriate concentration in a culture medium and added to the 384-well plate containing the test sample at 12.5 μL/well. The culture medium was added additionally to the 384-well plate, and the test was started with 50 μL/well. Control wells were prepared with only virus-free culture medium. The plate was incubated in a 5% CO2 incubator at 37° C. for 4 days, and the plate was then placed at room temperature for 30 minutes. CellTiter-Glo (registered trademark) 2.0 assay (Promega) was added at 15 μL/well, mixed for 30 seconds, and the plate was placed for approximately 1 hour. The luminescent signal was then measured by EnVision (PerkinElmer). The inhibitory effect of the test agents on RSV-induced CPE was calculated as 0% and 100% inhibition rate for each sample concentration based on the level of remaining viable cells by CellTiter-Glo (registered trademark) 2.0, with the EC50 value for each compound calculated by nonlinear regression as the concentration that inhibits RSV-induced CPE by 50%. In the case of evaluation against RSV type B, RSV B (Wash/18537 strain) was infected in the same manner as the type A, cultured for 5 days, and quantitated in the same manner as for the A2 strain.

| SMILES | EC50 [nM] |
| --- | --- |
| O=C(NC1(C(=O)O)C2CC3CC(C2)CC1C3)c1cnc(N2C(=O)C3(C=CCC3)c3cc(OC4CCN(c5ncccn5)CC4)ccc32)nc1C(F)(F)F (racemic) [Compound I-269] | 1.3 |

Same assay, conditions: human respiratory syncytial virus; inhibitory effect against RSV type A (RSV A2 strain), HEp-2 cells, CPE inhibition; read-out: EC50

| SMILES | EC50 [nM] |
| --- | --- |
| O=C(NC(C(=O)O)C1CCCCC1)c1cnc(N2CCc3cc(OC4CCN(c5ncccn5)CC4)ccc32)nc1C(F)(F)F (racemic) [Compound I-50] | 10 to 100 |
| O=C(NC1(C(=O)O)CCCCC1)c1cnc(N2CCc3cc(OCC4CN(CC(F)(F)F)CCO4)ccc32)nc1C(F)(F)F (racemic) [Compound I-58] | 10 to 100 |
| O=C(NC1(C(=O)O)CCCCC1)c1cnc(N2CCc3cc(OCC4CN(c5ncccn5)CCO4)ccc32)nc1C(F)(F)F (racemic) [Compound I-66] | 10 to 100 |
| NC(=O)C1CC1c1ccc2c(c1)CCN2c1ncc(C(=O)NC2(C(=O)O)C3CC4CC(C3)CC2C4)c(C(F)(F)F)n1 (racemic) [Compound I-215] | 10 to 100 |
| CNC(=O)C1CC1c1ccc2c(c1)CCN2c1ncc(C(=O)NC2(C(=O)O)C3CC4CC(C3)CC2C4)c(C(F)(F)F)n1 (racemic) [Compound I-216] | 10 to 100 |
| O=C(NC1(C(=O)O)C2CC3CC(C2)CC1C3)c1cnc(-c2cn(C3CCC(F)(F)CC3)c3ccc(OC4CCCN(C5COC5)C4)cc23)nc1C(F)(F)F (racemic) [Compound I-233] | 10 to 100 |
| O=C(NC1(C(=O)O)C2CC3CC(C2)CC1C3)c1ccc(-c2cn(C3CCC(F)(F)CC3)c3cc(OC4CCCN(C5COC5)C4)ccc23)nc1C(F)(F)F (racemic) [Compound I-235] | < 10 |
| O=C(NC1(C(=O)O)C2CC3CC(C2)CC1C3)c1cnc(N2CC3(C=CCC3)c3cc(OC4CCN(c5ncccn5)CC4)ccc32)nc1C(F)(F)F (racemic) [Compound I-243] | < 10 |
| CC1(C)CCCC(NC(=O)c2cnc(-c3cn(C4CCC(F)(F)CC4)c4cc(OC5CCN(c6ncccn6)CC5)ccc34)nc2C(F)(F)F)(C(=O)O)C1 (racemic) [Compound I-262] | < 10 |
| CC(C)(C)C(NC(=O)c1cnc(-c2cn(C3CCC(F)(F)CC3)c3cc(OC4CCN(c5ncccn5)CC4)ccc23)nc1C(F)(F)F)C(=O)O (racemic) [Compound I-263] | < 10 |
| O=C(NC1(C(=O)O)C2CC3CC(C2)CC1C3)c1ccc(-c2cn(CC3CC3(F)F)c3cc(OC4CCN(c5ncccn5)CC4)ccc23)nc1C(F)(F)F (racemic) [Compound I-266] | < 10 |
| CC(NC(=O)c1cnc(-c2cn(C3CCC(F)(F)CC3)c3cc(OC4CCN(c5ncccn5)CC4)ccc23)nc1C(F)(F)F)(C(=O)O)C1CCCCC1 (racemic) [Compound I-267] | < 10 |
| CC(C)(C)CC(NC(=O)c1cnc(-c2cn(C3CCC(F)(F)CC3)c3cc(OC4CCN(c5ncccn5)CC4)ccc23)nc1C(F)(F)F)C(=O)O (racemic) [Compound I-271] | < 10 |
| O=C(NC1(C(=O)O)C2CC3CC(C2)CC1C3)c1cnc(-c2cn(C3CCC(F)(F)CC3)c3cc(OC4CCN(C5CCOC5)CC4)ccc23)nc1C(F)(F)F (racemic) [Compound I-277] | < 10 |
| O=C(NC1(C(=O)O)C2CC3CC(C2)CC1C3)c1ccc(-c2cn(C3CCCOC3)c3cc(OC4CCN(c5ncccn5)CC4)ccc23)nc1C(F)(F)F (racemic) [Compound I-367] | < 10 |
| O=C(NC1(C(=O)O)C2CC3CC(C2)CC1C3)c1cnc(-c2cn(C3CCOC3)c3cc(OC4CCN(c5ncc(F)cn5)CC4)ccc23)nc1C(F)(F)F (racemic) [Compound I-410] | < 10 |
| CC(N1CCC(Oc2ccc3c(-c4ncc(C(=O)NC5(C(=O)O)C6CC7CC(C6)CC5C7)c(C(F)(F)F)n4)cn(C4CCC(F)(F)CC4)c3c2)CC1)C(F)(F)F (racemic) [Compound I-449] | < 10 |
| O=C(NC1(C(=O)O)C2CC3CC(C2)CC1C3)c1cnc(N2CC3(CCOCC3)c3cc(OCC(O)C(F)(F)F)ccc32)nc1C(F)(F)F (racemic) [Compound I-458] | < 10 |
| O=C(NC1(C(=O)O)C2CC3CC(C2)CC1C3)c1cnc(-c2cn(C3CCC(F)(F)C3)c3cc(OC4CCN(c5ncc(F)cn5)CC4)ccc23)nc1C(F)(F)F (racemic) [Compound I-470] | < 10 |
| COc1cccc(COc2ccc3c(ccn3-c3ncc(C(=O)NC4(C(=O)O)CC5CCC4C5)c(C(F)(F)F)n3)c2)c1 (single isomer, unassigned) [Compound I-18] | < 10 |
| COC12CC3CC(C1)C(NC(=O)c1cnc(N4CC5(CCOCC5)c5cc(OC6CCN(c7ncccn7)CC6)ccc54)nc1C(F)(F)F)(C(=O)O)C(C3)C2 (single isomer, unassigned) [Compound I-210] | < 10 |
| CC1CC(Oc2ccc3c(-c4ncc(C(=O)NC5(C(=O)O)C6CC7CC(C6)CC5C7)c(C(F)(F)F)n4)cn(C4CCC(F)(F)CC4)c3c2)CCN1c1ncc(F)cn1 (single isomer, unassigned) [Compound I-385] | < 10 |

Same assay, conditions: inhibitory effect against RSV type A (RSV A2 strain), HEp-2 cells, CPE inhibition; read-out: EC50

| SMILES | EC50 [nM] |
| --- | --- |
| O=C(NC1(C(=O)O)C2CC3CC(C2)CC1C3)c1cnc(N2CC3(CCN(C4COC4)C3)c3cc(OC4CCN(c5ncccn5)CC4)ccc32)nc1C(F)(F)F (racemic) [Compound I-333] | < 10 |
| O=C(NC1(C(=O)O)C2CC3CC(C2)CC1C3)c1cnc(N2CC3(CCN(c4ncc(F)cn4)C3)c3cc(OC4CCN(c5ncccn5)CC4)ccc32)nc1C(F)(F)F (racemic) [Compound I-361] | < 10 |
| CC(=O)N1CCC2(C1)CN(c1ncc(C(=O)NC3(C(=O)O)C4CC5CC(C4)CC3C5)c(C(F)(F)F)n1)c1ccc(OC3CCN(c4ncccn4)CC3)cc12 (racemic) [Compound I-362] | < 10 |
| CCNC(=O)N1CCC2(C1)CN(c1ncc(C(=O)NC3(C(=O)O)C4CC5CC(C4)CC3C5)c(C(F)(F)F)n1)c1ccc(OC3CCN(c4ncccn4)CC3)cc12 (racemic) [Compound I-364] | < 10 |
| COc1cccc(COc2ccc3c(c2)CCN3c2ncc(C(=O)NC3(C(=O)O)CC4CCC3C4)c(C(F)(F)F)n2)c1 (single isomer, unassigned) [Compound I-17] | < 10 |
| COc1cccc(COc2ccc3c(c2)CCN3c2ncc(C(=O)NC3(C(=O)O)CC4CCC3C4)c(C(F)(F)F)n2)c1 (single isomer, unassigned) [Compound I-19] | < 10 |
| O=C(NC1(C(=O)O)C2CC3CC1CC(O)(C3)C2)c1cnc(N2CCc3cc(OCCC4CCOCC4)ccc32)nc1C(F)(F)F (single isomer, unassigned) [Compound I-97] | 10 to 100 |
| Cn1ncc2c1CCC(Oc1ccc3c(c1)C1(CCOCC1)CN3c1ncc(C(=O)NC3(C(=O)O)C4CC5CC(C4)CC3C5)c(C(F)(F)F)n1)C2 (single isomer, unassigned) [Compound I-191] | < 10 |
| COC12CC3CC(C1)C(NC(=O)c1cnc(N4CC5(CCOCC5)c5cc(OC6CCN(c7ncccn7)CC6)ccc54)nc1C(F)(F)F)(C(=O)O)C(C3)C2 (single isomer, unassigned) [Compound I-211] | < 10 |
| O=C(NC1(C(=O)O)C2CC3CC(C2)CC1C3)c1cnc(N2CC3(CC4CCC(C3)O4)c3cc(OC4CCN(c5ncccn5)CC4)ccc32)nc1C(F)(F)F (single isomer, unassigned) [Compound I-300] | < 10 |
| CC1CC(Oc2ccc3c(-c4ncc(C(=O)NC5(C(=O)O)C6CC7CC(C6)CC5C7)c(C(F)(F)F)n4)cn(C4CCC(F)(F)CC4)c3c2)CCN1c1ncc(F)cn1 (single isomer, unassigned) [Compound I-386] | < 10 |
